The data set in a line: Stability of the crystal form. The format is physicochemical. The settings on record: room temperature and relative humidity greater than about 15%.

For the compound `COc1cnc(C(=O)Nc2ccc(F)c([C@]34CN(c5ncc(F)cn5)C[C@H]3CSC(N)=N4)c2)cn1` [Example 2, N-[3-[(4aR,7aS)-2-Amino-6-(5-fluoropyrimidin-2-yl)-4,4a, 5,7-tetrahydropyrrolo[3,4-d][1,3]thiazin-7a-yl]-4-fluoro-phenyl]-5-methoxy-pyrazine-2-carboxamide], the crystal form stability result is recorded as “stable crystal form”.
